These results are taken from US20120093947A1, “METHOD OF TREATING REACTIVE AIRWAY DISEASE” (UNITED STATES DEPARTMENT OF VETERANS AFFAIRS, priority 2009, published 2012).

In assay [1] the target is T1, LPO (Bos taurus, UniProt P80025).
T1 construct: Lactoperoxidase (LPO) from bovine milk (EC 1.11.1.7); purchased Sigma-Aldrich Co. (St. Louis, Mo.); host or cells: bovine milk (natural source)
Description: Nitration of salbutamol by LPO/H2O2/NO2−, A410. The class given is biochemical, bovine. The note with it: for Nitrophenols, (%) LPO: […] NaNO2, 4 mM H2O2, 65 nM LPO, pH 7.0, 10 min, ΔA410 versus control. The method, then:
(§1) Spectrophotometric Measurements. Spectra are measured using an Agilent diode array spectrophotometer model 8453 (Agilent Technologies, Inc., Santa Clara, Calif.). Nitration of salbutamol is studied by measuring absorption spectra at designated time points following the start of the reaction. Samples are prepared in 100 mM phosphate buffers (pH 7.0). All buffers contained DTPA (100 μM) or are pretreated with Chelex-100 before use, and measurements are performed at ambient temperature of 20° C. Typically, the reaction is started by the addition of a small aliquot of H2O2 or the desired peroxidase. Time course measurements are carried out following changes in absorbance at 410 nm in 30 second intervals versus absorbance at 800 nm, where none of the compounds absorb.
Ascorbate (AscH^−) is an effective natural antioxidant protecting airways from oxidative injury. Cross et al., (1994) Environ. Health Perspect. 102 (suppl. 10):185-191. Its concentration in the respiratory tract lining fluid is estimated to be near 100 μM (Id.). We examine the effect of AscH^− on nitration of 100 μM salbutamol by 67 nM LPO, 4 mM H2O2, and 3.5 mM of NaNO2 by measuring absorption at 410 nm. […] The duration of the lag period depends on AscH^− concentration. […] See, e.g., Reszka et al. (1999) Free Radic. Biol. & Med. 26:669-678.
As noted earlier, methimazole is an antithyroid drug, an effective inhibitor of LPO activity. 100 μM of salbutamol is reacted with 73 nM LPO, 3.5 mM NaNO2, and 4 mM H2O2 at pH buffer 7.0 in the presence of 0, 27, 55, and 109 μM methimazole (shown in FIG. 9, section A, traces a-d, respectively). Traces c and d also indicate by arrow when additional LPO is added to the system. […] In contrast to effects exerted by AscH^− or SCN^−, methimazole-dependent inhibition is permanent and is probably due to inactivation of the enzyme, since a second dose of LPO reactivates the process (FIG. 9, section A, trace c).
Dapsone, an anti-inflammatory and anti-leprotic agent, is a potent inhibitor of LPO and MPO. See, e.g., Kettle et al. (1991) Biochem. Pharmacol. 41(10):1485-1492; Bozeman et al. (1992) Biochem. Pharmacol. 44(2):553-563. 97 μM of salbutamol is reacted with 65 nM LPO, 3.4 mM NaNO2, and 4 mM H2O2 at pH buffer 7.0 in the presence of 0, 2.5, 5, 10, 50, and 100 μM dapsone (shown in FIG. 10, traces a-f, respectively). The arrows in traces d and e of FIG. 10 indicate where additional LPO is added to the system. […] Dapsone at 50 μM inhibited nitration by approximately 86%. Given the high concentrations of NaNO2 and H2O2 used in this system, dapsone appears to be a potent blocker of nitration.
The extent of nitration is expressed as a change in ΔA410 versus control (dapsone omitted) taken as 100% after 10, 30, and 60 minute reactions for LPO, MPO, and EPO nitrating systems, respectively. Results equal the means±SE of at least two measurements. In the LPO system, 100 μM of salbutamol, 3.4 mM of NaNO2, 4 mM of H2O2, and 65 nM of LPO is used. In the MPO system, 50 μM of salbutamol, 5.0 mM of NaNO2, 5 mM of H2O2, and 0.2 U/mL of MPO is used. In the EPO system, 50 μM of salbutamol, 5 mM of NaNO2, 2 mM of H2O2, and 0.075 U/mL of EPO is used. All reactions were carried out in pH 7.0 phosphate buffer containing DMSO (5% v/v). The term “nitrophenols” includes nitrosalbutamol (N-Sal) and salbutamol-derived nitrophenol (N—ArOH).

Assay [2] addresses T2, EPO (Homo sapiens, UniProt P11678).
T2 construct: purchased Calbiochem
The assay can be described thus: Nitration of salbutamol by EPO/H2O2/NO2−, A410. It counts as biochemical. The note with it: 50 μM salbutamol, 5 mM NaNO2, 2 mM H2O2, 0.075 U/mL EPO, pH 7.0, 60 min, ΔA410 versus control. The method, then:
as §1
We also examine the effect of methimazole on nitration catalyzed by MPO and EPO. 50 μM of salbutamol is reacted with 0.2 U/mL MPO, 5 mM NaNO2, and 2.1 mM H2O2 at pH buffer 7.0 in the presence of 0, 25, 50, and 100 μM methimazole (shown in FIG. 9, section B, traces a-d, respectively). In contrast to inhibition of nitration by LPO system, which was irreversible, inhibitory action of methimazole on MPO/H2O2/NO2^− is transitory.
The extent of nitration is expressed as a change in ΔA410 versus control (dapsone omitted) taken as 100% after 10, 30, and 60 minute reactions for LPO, MPO, and EPO nitrating systems, respectively. […]

T2 sequence (P11678 251-715 limits assumed): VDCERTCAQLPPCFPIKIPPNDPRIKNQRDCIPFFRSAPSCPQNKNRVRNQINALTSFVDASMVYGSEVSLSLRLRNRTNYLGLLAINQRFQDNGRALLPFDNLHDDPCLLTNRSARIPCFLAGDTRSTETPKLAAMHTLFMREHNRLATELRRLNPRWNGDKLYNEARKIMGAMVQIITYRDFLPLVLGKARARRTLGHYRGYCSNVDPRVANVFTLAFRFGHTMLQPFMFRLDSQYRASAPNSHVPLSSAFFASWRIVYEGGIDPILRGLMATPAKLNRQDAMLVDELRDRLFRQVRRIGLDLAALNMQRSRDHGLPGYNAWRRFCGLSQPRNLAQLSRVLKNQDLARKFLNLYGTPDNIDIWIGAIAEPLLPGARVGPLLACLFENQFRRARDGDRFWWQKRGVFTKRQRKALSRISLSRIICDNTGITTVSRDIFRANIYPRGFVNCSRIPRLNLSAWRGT
T2 sequence (P11678 140-250 limits assumed): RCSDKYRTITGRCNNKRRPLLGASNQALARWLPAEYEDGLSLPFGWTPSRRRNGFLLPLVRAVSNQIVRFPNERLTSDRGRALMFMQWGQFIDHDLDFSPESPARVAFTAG

As usually defined, the inhibition is the change of the read-out against control, counted positive when it falls. A higher inhibition goes with strong suppression. For the compound `Nc1ccc(S(=O)(=O)c2ccc(N)cc2)cc1` [Dapsone, diamino-diphenyl sulfone], the “Nitrophenols, (%) LPO” value was 72.8 ± 2.0% in assay [1] (dapsone 2.5 μM, 100 μM salbutamol); 58.4 ± 1.4% in assay [1] (dapsone 5.0 μM, 100 μM salbutamol); 45.7 ± 2.0% in assay [1] (dapsone 10.0 μM, 100 μM salbutamol); 14.0 ± 2.7% in assay [1] (dapsone 50.0 μM, 100 μM salbutamol). Besides, the inhibition at 50 µM in assay [1] (dapsone 50 μM, 97 μM salbutamol, 65 nM LPO, 3.4 mM NaNO2, 4 mM H2O2, pH 7.0) was approximately 86%. For the same compound, the “Nitrophenols, (%) EPO” value in assay [2] (dapsone 140 μM) is listed as 57%; in assay [2] (dapsone 300 μM), 34 ± 2%.

On to `Cn1cc[nH]c1=S` [Methimazole, 1-methyl-3H-imidazole-2-thione], for which the “Nitration of salbutamol by LPO/H2O2/NO2− (A410 versus time)” value in assay [1] (methimazole close to 100 μM (109 μM), 100 μM salbutamol, 73 nM LPO, 3.5 mM NaNO2, 4 mM H2O2, pH 7.0) is on record as “completely prevents”.
